Assay results as given in patent US12052991B2, “Substituted pyridinyloxybenzenes and salts thereof and use thereof as herbicidal agents” (Bayer Aktiengesellschaft, priority 2018, dated 2024).

Experiments:
Assay type in all cases: in vivo
[1] = system: Amaranthus retroflexus (AMARE); assay: Herbicidal post-emergence action (Table B6); settings: visual rating about 3 weeks after treatment, 100% = plants have died, 0% = like control plants
Procedure: (§1) Seeds of mono- and dicotyledonous weed plants were placed in plastic pots in sandy loam soil (doubly sown with in each case one species of mono- or dicotyledonous weed plants per pot), covered with soil and cultivated in a greenhouse under controlled growth conditions. 2 to 3 weeks after sowing, the test plants were treated at the one-leaf stage. The compounds of the invention, formulated in the form of wettable powders (WP) or as emulsion concentrates (EC), were applied onto the green parts of the plants as aqueous suspension or emulsion with addition of 0.5% additive at a water application rate of 600 liters per hectare (converted). After the test plants had been kept in the greenhouse under optimum growth conditions for about 3 weeks, the activity of the preparations was rated visually in comparison to untreated controls. For example, 100% activity=the plants have died, 0% activity=like control plants. Tables B1 to B12 below show the effects of selected compounds of the general formula (I) according to Table 1 on various harmful plants and an application rate corresponding to 1280 or 320 g/ha, which were obtained by the experimental procedure mentioned above.

Veronica persica (VERPE) [2] = assay: Herbicidal post-emergence action (Table B12); settings: visual rating about 3 weeks after treatment, 100% = plants have died, 0% = like control plants
Procedure: as §1

Veronica persica (VERPE) [3] = assay: Herbicidal pre-emergence action, test C (Table C12); settings: dosage 1280 g/ha, visual scoring vs untreated controls
Text: (§2) Seeds of mono- and dicotyledonous weed plants were placed in plastic pots in sandy loam soil (doubly sown with one species each of mono- or dicotyledonous weed plants per pot) and covered with soil. The compounds of the invention, formulated in the form of wettable powders (WP) or as emulsion concentrates (EC), were then applied onto the surface of the covering soil as aqueous suspension or emulsion with addition of 0.5% additive at a water application rate of 600 liters per hectare (converted). After the treatment, the pots were placed in a greenhouse and kept under good growth conditions for the test plants. After about 3 weeks, the effect of the preparations was scored visually in comparison with untreated controls as percentages. For example, 100% activity=the plants have died, 0% activity=like control plants. Tables C1 to C12 below show the effects of selected compounds of the general formula (I) according to Table 1 on various harmful plants and an application rate corresponding to 1280 or 320 g/ha, which were obtained by the experimental procedure mentioned above.

[4] = system: harmful plants ABUTH, AMARE, ECHCG, LOLRI, MATIN, POAAN, SETVI, STEME, ALOMY, DIGSA, KCHSC and VERPE; assay: Herbicidal post-emergence action, summary of Tables B1-B12; settings: application rate of 1280 or 320 g of active ingredient per hectare; summary in words
Procedure: as §1, with “controls.” for “controls. For example, 100% activity=the plants have died, 0% activity=like control plants. Tables B1 to B12 below show the effects of selected compounds of the general formula (I) according to Table 1 on various harmful plants and an application rate corresponding to 1280 or 320 g/ha, which were obtained by the experimental procedure mentioned above.”
(§3) For example, 100% activity=the plants have died, 0% activity=like control plants.
Tables B1 to B12 below show the effects of selected compounds of the general formula (I) according to Table 1 on various harmful plants and an application rate corresponding to 1280 or 320 g/ha, which were obtained by the experimental procedure mentioned above.
As the results of Tables B1-B12 show, compounds no.

[5] = system: Amaranthus retroflexus (AMARE); assay: Herbicidal pre-emergence action, test C (Table C6); settings: visual scoring after about 3 weeks, 100% = plants have died, 0% = like control plants
Text: as §2

Poa annua (POAAN) [6] = assay: Herbicidal pre-emergence action, test C (Table C3); settings: visual scoring after about 3 weeks, 100% = plants have died, 0% = like control plants
Text: as §2

Poa annua (POAAN) [7] = assay: Herbicidal post-emergence action (Table B3); settings: rated visually after about 3 weeks, 100% = plants have died, 0% = like control plants
Procedure: as §1

[8] = system: Abutilon theophrasti (ABUTH); assay: Herbicidal pre-emergence action, test C (Table C5); settings: dosage 1280 g/ha; visual scoring after about 3 weeks; 100% = plants have died, 0% = like control plants
Text: as §2

Setaria viridis (SETVI) = assay: Herbicidal pre-emergence action, test C (Table C4); settings: dosage 1280 g/ha; visual scoring after about 3 weeks; 100% = plants have died, 0% = like control plants
Text: as §2

[9] = system: Digitaria sanguinalis (DIGSA); assay: Herbicidal pre-emergence action, test C (Table C10); settings: dosage 1280 g/ha; visual scoring after about 3 weeks; 100% = plants have died, 0% = like control plants
Text: as §2

Stellaria media (STEME) [10] = assay: Herbicidal post-emergence action (Table B8); settings: visual rating about 3 weeks after treatment, 100% = plants have died, 0% = like control plants
Procedure: as §1

[11] = system: Abutilon theophrasti (ABUTH); assay: Herbicidal post-emergence action (Table B5); settings: rated visually after about 3 weeks, 100% = plants have died, 0% = like control plants
Procedure: as §1

[12] = system: harmful plants ABUTH, AMARE, ECHCG, LOLRI, MATIN, POAAN, SETVI, STEME, ALOMY, DIGSA, KCHSC and VERPE; assay: Herbicidal pre-emergence action (test C), summary of Tables C1-C12; settings: application rate of 1280 or 320 g of active ingredient per hectare; summary in words
Text: as §2, with “percentages.” for “percentages. For example, 100% activity=the plants have died, 0% activity=like control plants. Tables C1 to C12 below show the effects of selected compounds of the general formula (I) according to Table 1 on various harmful plants and an application rate corresponding to 1280 or 320 g/ha, which were obtained by the experimental procedure mentioned above.”
as §3
Tables C1 to C12 below show the effects of selected compounds of the general formula (I) according to Table 1 on various harmful plants and an application rate corresponding to 1280 or 320 g/ha, which were obtained by the experimental procedure mentioned above.
As the results of Tables C1-C12 show, compounds no.

[13] = system: Matricaria inodora (MATIN); assay: Herbicidal pre-emergence action, test C (Table C7); settings: dosage 1280 g/ha; visual scoring after about 3 weeks; 100% = plants have died, 0% = like control plants
Text: as §2

Stellaria media (STEME) [14] = assay: Herbicidal pre-emergence action, test C (Table C8); settings: visual scoring after about 3 weeks, 100% = plants have died, 0% = like control plants
Text: as §2

[15] = system: Echinochloa crus-galli (ECHCG); assay: Herbicidal post-emergence action (Table B1); settings: 1280 g/ha; rated visually after about 3 weeks; 100% = plants have died, 0% = like control plants
Procedure: as §1

Bassia scoparia (KCHSC) = assay: Herbicidal post-emergence action (Table B11); settings: dosage 1280 g/ha; visual rating about 3 weeks after treatment; 100% = plants have died, 0% = like control plants
Procedure: as §1

| Compound | Post-emergence action against Amaranthus retroflexus (AMARE) ([1]; dosage 320 g/ha) [%] | Post-emergence action against Amaranthus retroflexus (AMARE) ([1]; dosage 1280 g/ha) [%] | Post-emergence action against Veronica persica (VERPE) (Veronica persica (VERPE) [2]; dosage 320 g/ha) [%] | Post-emergence action against Veronica persica (VERPE) (Veronica persica (VERPE) [2]; dosage 1280 g/ha) [%] | Pre-emergence action against Veronica persica (VERPE) (Veronica persica (VERPE) [3]) [%] | herbicidal activity against the harmful plants of Tables B1-B12 in post-emergence treatment [4] | Pre-emergence action against Amaranthus retroflexus (AMARE) ([5]; dosage 320 g/ha) [%] | Pre-emergence action against Amaranthus retroflexus (AMARE) ([5]; dosage 1280 g/ha) [%] | Pre-emergence action against Poa annua (POAAN) (Poa annua (POAAN) [6]; dosage 320 g/ha) [%] | Pre-emergence action against Poa annua (POAAN) (Poa annua (POAAN) [6]; dosage 1280 g/ha) [%] | Post-emergence action against Poa annua (POAAN) (Poa annua (POAAN) [7]; 320 g/ha) [%] | Post-emergence action against Poa annua (POAAN) (Poa annua (POAAN) [7]; 1280 g/ha) [%] | Pre-emergence action against Setaria viridis (SETVI) (Setaria viridis (SETVI)) [%] | Pre-emergence action against Digitaria sanguinalis (DIGSA) [9] [%] | Post-emergence action against Stellaria media (STEME) (Stellaria media (STEME) [10]; dosage 1280 g/ha) [%] | Post-emergence action against Abutilon theophrasti (ABUTH) ([11]; 1280 g/ha) [%] | herbicidal activity against the harmful plants of Tables C1-C12 in pre-emergence treatment [12] | Pre-emergence action against Matricaria inodora (MATIN) [13] [%] | Pre-emergence action against Stellaria media (STEME) (Stellaria media (STEME) [14]; dosage 1280 g/ha) [%] | Post-emergence action against Stellaria media (STEME) (Stellaria media (STEME) [10]; dosage 320 g/ha) [%] | further results |
| --- | --- | --- | --- | --- | --- | --- | --- | --- | --- | --- | --- | --- | --- | --- | --- | --- | --- | --- | --- | --- | --- |
| FC(F)c1cc(-c2ccc(Br)cc2Oc2ccc(Cl)cn2)on1 [Example 1-62] | 100 | 100 | 100 | 100 | 90 | very good herbicidal activity | 90 | 100 | 90 | 100 | 100 | 100 | 100 | 100 | 100 | 100 | very good herbicidal activity |  |  |  | Pre-emergence action against Abutilon theophrasti (ABUTH) [8]: 90%; Post-emergence action against Abutilon theophrasti (ABUTH) ([11]; 320 g/ha): 100% |
| Cc1ccc(-c2ccccc2Oc2ccc(Cl)cn2)nc1 [Example 1-80] |  | 100 | 100 | 100 | 100 | very good herbicidal activity | 100 | 100 |  | 90 |  |  | 100 | 100 | 100 | 100 | very good herbicidal activity | 90 |  |  |  |
| COc1ccc(-c2cc(C(F)F)no2)c(Oc2ccc(Cl)cn2)c1 [Example 1-39] | 100 | 100 | 100 | 100 | 100 | very good herbicidal activity | 100 | 100 | 100 | 100 | 100 | 100 | 90 | 90 | 100 | 90 | very good herbicidal activity | 90 | 100 | 100 | Pre-emergence action against Stellaria media (STEME) (Stellaria media (STEME) [14]; dosage 320 g/ha): 100%; Post-emergence action against Echinochloa crus-galli (ECHCG) [15]: 90% |
| Cc1ccc(-c2cc(C(F)F)no2)c(Oc2ncc(Cl)cc2F)c1 [Example 1-27] |  |  | 100 | 100 | 100 | very good herbicidal activity |  | 90 |  |  |  |  |  |  | 100 | 90 | very good herbicidal activity |  | 90 | 100 | Post-emergence action against Bassia scoparia (KCHSC) (Bassia scoparia (KCHSC)): 90% |
